{"source": "paper PMC9090415", "about": "“Discovery of small molecule inhibitors of Plasmodium falciparum apicoplast DNA polymerase” (Journal of Enzyme Inhibition and Medicinal Chemistry, 2022)"}
{"target": "T1, P. berghei apicoplast DNA polymerase (Pb-apPOL) (Plasmodium berghei, UniProt A0A509ALK1)", "T1 sequence (A0A509ALK1 1182-1809)": "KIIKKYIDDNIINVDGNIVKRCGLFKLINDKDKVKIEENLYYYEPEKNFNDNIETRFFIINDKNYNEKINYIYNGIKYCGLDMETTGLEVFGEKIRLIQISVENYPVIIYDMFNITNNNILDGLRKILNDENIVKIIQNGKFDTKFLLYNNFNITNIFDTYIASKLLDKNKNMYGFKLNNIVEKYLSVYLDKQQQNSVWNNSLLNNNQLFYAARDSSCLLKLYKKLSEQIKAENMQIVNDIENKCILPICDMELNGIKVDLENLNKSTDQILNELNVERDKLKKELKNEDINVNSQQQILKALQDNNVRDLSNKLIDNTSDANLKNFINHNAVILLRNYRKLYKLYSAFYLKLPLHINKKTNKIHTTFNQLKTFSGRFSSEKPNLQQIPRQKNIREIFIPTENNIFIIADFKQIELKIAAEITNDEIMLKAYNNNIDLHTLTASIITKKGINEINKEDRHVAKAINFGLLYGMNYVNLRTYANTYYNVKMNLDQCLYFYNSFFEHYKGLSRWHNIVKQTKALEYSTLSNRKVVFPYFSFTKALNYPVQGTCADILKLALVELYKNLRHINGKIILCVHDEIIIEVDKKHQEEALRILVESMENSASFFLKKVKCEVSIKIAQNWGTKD", "experiment": "In vitro DNA polymerase inhibition assay, Pb-apPOL", "assay_type": "biochemical", "details": "Table 2", "protocol": "Codon-optimized, exonuclease-deficient Pf-apPOL was overexpressed in E. coli BL21 (DE3) and purified as described. The protein was dialysed against two, 1-liter changes of 20 mM Tris-HCl (pH 8.0), 400 mM NaCl, and 20% glycerol. Plasmodium bergei and Babesia bovis apPOLs (Pb-apPOL and Bb-apPOL, respectively) were codon-optimized, expressed, and purified as for Pf-apPOL[15]. Bacteriophage T4 DNA polymerase was purified as described. The DNA oligonucleotides used to make the high-throughput substrate were obtained from Integrated DNA Technologies. Deoxynucleotides were purchased from Strategene. All other materials came from Fisher Scientific.\nThe HT assay employs a molecular beacon, a stem-loop DNA template with a Cy3 dye and the Black Hole Quencher on the 3′ and 5′ ends of the DNA, respectively. Pf-apPOL concentration is based on a calculated absorptivity of ε280 = 56750 M^−1 cm^−1. Reactions were carried out at 25 °C, using Corning 3575 […] (well-volume, 20 µL). Assays testing for compound inhibition composed of reaction buffer (pH 7.9 in 50 mM potassium acetate, 20 mM Tris-acetate and 10 mM magnesium acetate), Pf-apPOL (20 nM), DNA substrate (20 nM), dNTPs (6 µM), and compound (10 µM in DMSO). The DNA and nucleotide substrates (dNTPs) were at concentrations of 20 nM and 6 µM, respectively, in the assay. Pf-apPOL was incubated in the reaction buffer with dNTPs and the compound of interest (10 µM, in the assay) at 25 °C for 10 min. The DNA substrate was then added and the reaction was allowed to proceed for 90 min at 25 °C.\nIn the above, Min is the average of fluorescence emission of the negative controls (substrate only), Max the average fluorescence emission from the positive controls (enzyme + substrate), and Test the emission from the assays in the presence of compounds (enzyme + compound + substrates). Dose-response confirmation assays were performed under similar conditions as the primary screen, but monitoring fluorescence at 10, 90, and 180 min. Tested concentrations of compounds were 2.5, 10, 20, 40, and 80 µM. The IC50 of each compound was determined using Equation (2): (2) […] Vmax/(1+ (I/IC50)^n)\nWe tested the ability of the 102 compounds to kill P. falciparum parasites cultured in human red blood cells. Due to the number of compounds, we used a single inhibitor concentration of 20 µM and performed experiments in triplicate. These single-dose assays identified 9 compounds that inhibited parasite growth by more than 50%. These compounds were then tested in a dose-response format against chloroquine resistant P. falciparum parasites (Dd2) and the resulting data were fit to a sigmoidal growth inhibition curve to determine EC50 values (Figure 5, Table 2). […] Inhibition of Pb-apPOL is a desired feature because it is likely that future in vivo studies will be performed in the mouse model for Malaria. […] The in vitro polymerase assays identified 5 compounds that were potent inhibitors of all three apicoplast polymerases and a single compound that inhibited Pf-apPOL and Bb-apPOL but not Pb-apPOL (Table 2). Finally, to determine if the compounds were killing the parasites solely via apicoplast disruption, the dose-response curves were also performed with 1 mM isopentylpyrophosphate (IPP) in the growth media (Table 2). […] At this time, it is unclear what the non-apicoplast target(s) may be. One intriguing possibility is that these compounds may be targeting both the apicoplast and the mitochondrial DNA polymerases. […]", "units": {"IC50": "µM"}}
{"smiles": "CCOc1nc2cccc(C(=O)OC(C)OC(=O)OC3CCCCC3)c2n1Cc1ccc(-c2ccccc2-c2nnn[nH]2)cc1", "note": "(stereo not shown) [Molecule 94]", "IC50": "13.9 ± 1.6"}
{"smiles": "OC(C#Cc1ccccc1)c1ccco1", "note": "(stereo not shown) [Molecule 95]", "IC50": "8.6 ± 0.7"}
{"smiles": "COc1ccc(CNC(=O)Cn2nc3c(c2NC(=O)Cc2cccs2)CSC3)cc1", "note": "[Molecule 55]", "IC50": "51.9 ± 3.5"}
{"smiles": "O=C(O)c1ccc(-c2nc3cc(-c4ccc5nc(-c6ccc(C(=O)O)cc6)[nH]c5c4)ccc3[nH]2)cc1", "note": "[Molecule 1]", "IC50": "7.1 ± 0.6"}
